From patent US20020026052A1, “3-cyanoquinolines, 3-cyano-1,6-naphthyridines, and 3-cyano-1,7-naphthyridines as protein kinase inhibitors” (American Home Products Corporation, priority 2000, published 2002)
“And” between values parts separate entries of the source, which are not always exact repeats. Identical values can stand only once.

Target: Rat2 fibroblasts stably transformed with v-Src/Hu c-Src fusion gene (Homo sapiens, UniProt P12931, cells depend on it, form not given)
Sequence (P12931 whole entry, change not shown, the tested form may be a part): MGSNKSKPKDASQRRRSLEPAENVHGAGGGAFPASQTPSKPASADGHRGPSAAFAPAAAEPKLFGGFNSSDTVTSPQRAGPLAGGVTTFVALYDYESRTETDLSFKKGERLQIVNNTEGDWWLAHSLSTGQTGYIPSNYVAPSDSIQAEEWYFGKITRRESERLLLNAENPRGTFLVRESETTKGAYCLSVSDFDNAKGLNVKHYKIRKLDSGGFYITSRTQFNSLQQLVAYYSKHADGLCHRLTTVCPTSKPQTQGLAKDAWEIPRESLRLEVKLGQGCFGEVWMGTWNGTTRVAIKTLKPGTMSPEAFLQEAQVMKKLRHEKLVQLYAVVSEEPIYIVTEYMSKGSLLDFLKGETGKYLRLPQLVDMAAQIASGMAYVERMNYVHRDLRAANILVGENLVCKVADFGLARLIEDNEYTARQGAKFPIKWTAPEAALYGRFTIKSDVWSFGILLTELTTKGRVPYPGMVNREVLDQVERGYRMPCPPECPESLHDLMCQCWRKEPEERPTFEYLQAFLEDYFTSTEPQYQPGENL
Assay: Anchorage Independent Src-transformed Fibroblast Proliferation Assay
Assay type: cell-based, Rat
Conditions: suspension growth, MTS reagent on Day 5; read-out: anch-indep src-tx fib IC50
Experimental: Anchorage Independent Src-transformed Fibroblast Proliferation Assay
Rat2 fibroblasts stably transformed with a plasmid containing a CMV promotor controlled v-Src/Hu c-Src fusion gene in which the catalytic domain of human c-Src was inserted in place of the v-Src catalytic domain in the v-Src gene are used for the measurement of src dependent suspension growth. […] Multiple entries for a given compound indicate that it was tested multiple times.
In the case of CCN1CCN(Cc2cc(-c3ccc4c(Nc5cc(OC)c(Cl)cc5Cl)c(C#N)cnc4c3)cs2)CC1 [Example 19, 4-(2,4-dichloro-5-methoxyanilino)-7-{5-[(4-ethyl-1-piperazinyl)methyl]-3-thienyl}-3-quinolinecarbonitrile], the GI50 is reported as 160 nM.
For COc1cc(Nc2c(C#N)cnc3cc(-c4ccc(CN5CCOCC5)s4)ccc23)c(Cl)cc1Cl [Example 23, 4-(2,4-Dichloro-5-methoxyanilino)-7-[5-(4-morpholinylmethyl)-2-thienyl]-3-quinolinecarbonitrile], the GI50 was 90 nM.
Work on COc1cc(Nc2c(C#N)cnc3cc(-c4csc(CN5CCOCC5)c4)ccc23)c(Cl)cc1Cl [Example 24, 4-(2,4-Dichloro-5-methoxyanilino)-7-[5-(4-morpholinylmethyl)-3-thienyl]-3-quinolinecarbonitrile] yielded a GI50 of 180 nM.
COc1cc(Nc2c(C#N)cnc3cc(-c4ccc(CCN5CCOCC5)cc4)ccc23)c(Cl)cc1Cl [Example 27, 4-(2,4-Dichloro-5-methoxyanilino)-7-{4-[2-(4-morpholinyl)ethyl]phenyl}-3-quinolinecarbonitrile] showed a GI50 of 1020 nM.
COc1cc(Nc2c(C#N)cnc3cc(-c4cccc(CCN5CCOCC5)c4)ccc23)c(Cl)cc1Cl [Example 28, 4-(2,4-Dichloro-5-methoxyanilino)-7-{3-[2-(4-morpholinyl)ethyl]phenyl}-3-quinolinecarbonitrile] gave a GI50 of 4100 nM.
With COc1cc(Nc2c(C#N)cnc3cc(-c4ccc(CN5CCOCC5)cc4)ccc23)c(Cl)cc1Cl [Example 29, 4-(2,4-Dichloro-5-methoxyanilino)-7-[4-(4-morpholinylmethyl)phenyl]-3-quinolinecarbonitrile] the GI50 was 540 nM and 500 nM.
For CCN1CCN(CCc2ccc(-c3ccc4c(Nc5cc(OC)c(Cl)cc5Cl)c(C#N)cnc4c3)cc2)CC1 [Example 32, 4-(2,4-Dichloro-5-methoxyanilino)-7-{4-[2-(4-ethyl-1-piperazinyl)ethyl]phenyl}-3-quinolinecarbonitrile], the GI50 was 2000 nM and 1900 nM.
In the case of COc1cc(Nc2c(C#N)cnc3cc(-c4ccc(CN5CCOCC5)cc4)c(OC)cc23)c(Cl)cc1Cl [Example 37, 4-(2,4-Dichloro-5-methoxyanilino)-6-methoxy-7-[4-(4-morpholinylmethyl)phenyl]-3-quinolinecarbonitrile], the GI50 is reported as 1590 nM and 1490 nM.
In the case of COc1cc(Nc2c(C#N)cnc3cc(-c4cccc(CCN5CCOCC5)c4)c(OC)cc23)c(Cl)cc1Cl [Example 38, 4-(2,4-Dichloro-5-methoxyanilino)-6-methoxy-7-{3-[2-(4-morpholinyl)ethyl]phenyl}-3-quinolinecarbonitrile], the GI50 is reported as 12700 nM and 10600 nM.
Work on COc1cc(Nc2c(C#N)cnc3cc(-c4cscc4CN4CCOCC4)ccc23)c(Cl)cc1Cl [Example 65, 4-(2,4-Dichloro-5-methoxyanilino)-7-[4-(4-morpholinylmethyl)-3-thienyl]-3-quinolinecarbonitrile] yielded a GI50 of over 10000 nM.
In the case of COc1cc(Nc2c(C#N)cnc3cc(-c4ccsc4CN4CCOCC4)ccc23)c(Cl)cc1Cl [Example 66, 4-(2,4-Dichloro-5-methoxyanilino)-7-[2-(4-morpholinylmethyl)-3-thienyl]-3-quinolinecarbonitrile], the GI50 is reported as over 10000 nM.
Work on COc1cc(Nc2c(C#N)cnc3cc(-c4cc(CN5CCOCC5)cs4)ccc23)c(Cl)cc1Cl [Example 68, 4-(2,4-Dichloro-5-methoxyanilino)-7-[4-(4-morpholinylmethyl)-2-thienyl]-3-quinolinecarbonitrile] yielded a GI50 of 120 nM.
COc1cc(Nc2c(C#N)cnc3cc(-c4ccc(CNCCS(=O)(=O)c5ccccc5)n4C)ccc23)c(Cl)cc1Cl [Example 72, 4-(2,4-dichloro-5-methoxyanilino)-7-[1-methyl-5-({[2-(phenylsulfonyl)ethyl]amino}methyl)-1H-pyrrol-2-yl]-3-quinolinecarbonitrile] showed a GI50 of over 10000 nM.
Compound COc1cc(Nc2c(C#N)cnc3cc(-c4ccc(CN5CCCCC5)s4)ccc23)c(Cl)cc1Cl [Example 78, 4-(2,4-Dichloro-5-methoxyanilino)-7-[5-(1-piperidinylmethyl)-2-thienyl]-3-quinolinecarbonitrile] has a GI50 of 140 nM.
Work on COc1cc(Nc2c(C#N)cnc3cc(C#Cc4ccccn4)ccc23)c(Cl)cc1Cl [Example 91, 4-(2,4-Dichloro-5-methoxyanilino)-7-[2-(2-pyridinyl)ethynyl]-3-quinolinecarbonitrile] yielded a GI50 of over 10000 nM.
For COc1cc(Nc2c(C#N)cnc3cc(-c4ccc[nH]4)ccc23)c(Cl)cc1Cl [Example 104, 4-(2,4-Dichloro-5-methoxyanilino)-7-(1H-pyrrol-2-yl)-3-quinolinecarbonitrile], the GI50 was 560 nM.
Compound COc1cc(Nc2c(C#N)cnc3cc(-c4cccc(CN5CCN(C)CC5)c4)ccc23)c(Cl)cc1Cl [Example 113, 4-(2,4-dichloro-5-methoxyanilino)-7-{3-[(4-methyl-1-piperazinyl)methyl]phenyl}-3-quinolinecarbonitrile] has a GI50 of 1400 nM.
With COc1cc(Nc2c(C#N)cnc3cc(-c4ccccc4C=O)ccc23)c(Cl)cc1Cl [Example 114, 4-(2,4-Dichloro-5-methoxyanilino)-7-(2-formylphenyl)-3-quinolinecarbonittile] the GI50 was over 10000 nM.
In the case of COc1cc(Nc2c(C#N)cnc3cc(-c4ccccc4CN4CCOCC4)ccc23)c(Cl)cc1Cl [Example 115, 4-(2,4-Dichloro-5-methoxyanilino)-7-[2-(4-morpholinylmethyl)phenyl]-3-quinolinecarbonitrile], the GI50 is reported as over 10000 nM.
For COc1cc(Nc2c(C#N)cnc3cc(/C=C/c4ccccc4)ccc23)c(Cl)cc1Cl [Example 139, 4-(2,4-Dichloro-5-methoxyanilino)-7-[(E)-2-phenylethenyl]-3-quinolinecarbonitrile], the GI50 was over 10000 nM.
Work on COc1cc(Nc2c(C#N)cnc3cc(C#Cc4ccccc4)ccc23)c(Cl)cc1Cl [Example 140, 4-(2,4-Dichloro-5-methoxyanilino)-7-(2-phenylethynyl)-3-quinolinecarbonitrile] yielded a GI50 of over 10000 nM.
In the case of COc1cc(Nc2c(C#N)cnc3cc(-c4csc(CN5CCC(O)CC5)c4)ccc23)c(Cl)cc1Cl [Example 192, 4-(2,4-Dichloro-5-methoxyanilino)-7-{5-[(4-hydroxy-1-piperidinyl)methyl]-3-thienyl}-3-quinolinecarbonitrile], the GI50 is reported as 170 nM.

System: not given
Assay: not given
Conditions: not given
With Cn1ccnc1Sc1ccc(Nc2c(C#N)cnc3cc(-c4ccc(N5CCN(CCO)CC5)nc4)ccc23)cc1Cl [Example 215, 4-({3-Chloro-4-[(1-methyl-1H-irnidazol-2-yl)sulfanyl]phenyl}amino)-7-{6-[4-(2-hydroxyethyl)-1-piperazinyl]-3-pyridinyl}-3-quinolinecarbonitrile] the melting point was 239 to 241 °C.
In the case of CN(CCO)c1ccc(-c2ccc3c(Nc4ccc(Sc5nccn5C)c(Cl)c4)c(C#N)cnc3c2)cn1 [Example 216, 4-({3-Chloro-4-[(1-methyl-1H-imidazol-2-yl)sulfanyl]phenyl}amino)-7-{6-[(2-hydroxyethyl) (methyl)amino]-3-pyridinyl}-3-quinolinecarbonitrile], the melting point is reported as 228 °C (dec.).
Cn1ccnc1Sc1ccc(Nc2c(C#N)cnc3cc(-c4ccc(CN5CCN(CCO)CC5)cn4)ccc23)cc1Cl [Example 217, 4-({3-chloro-4-[(1-methyl-1H-imidazol-2-yl)sulfanyl]phenyl}amino)-7-(5-{[4-(2-hydroxy-ethyl)-1-piperazinyl]-methyl}-2-pyridinyl)-3-quinolinecarbonitrile] gave a melting point of 160 to 163 °C.
Work on Cn1ccnc1Sc1ccc(Nc2c(C#N)cnc3cc(-c4ccc(CN5CCSCC5)cn4)ccc23)cc1Cl [Example 219] yielded a melting point of 220 to 222 °C.
In the case of CCN1CCN(Cc2ccc(-c3ccc4c(Nc5ccc(Sc6nccn6C)c(Cl)c5)c(C#N)cnc4c3)cn2)CC1 [Example 220, 4-({3-Chloro-4-[(1-methyl-1H-imidazol-2-yl)sulfanyl]phenyl}amino)-7-1-{6-[(4-ethyl-1-piperazinyl)methyl]-3-pyridinyl}-3-quinolinecarbonitrile], the melting point is reported as 192 to 195 °C.
For CN1CCN(Cc2ccc(-c3ccc4c(Nc5ccc(Sc6nccn6C)c(Cl)c5)c(C#N)cnc4c3)cn2)CC1 [Example 221, 4-({3-Chloro-4-[(1-methyl-1H-imidazol-2-yl)sulfanyl]phenyl}amino)-7-1-{6-[(4-methyl-1-piperazinyl)methyl]-3-pyridinyl}-3-quinolinecarbonitrile], the melting point was 228 to 230 °C.
Work on Cn1ccnc1Sc1ccc(Nc2c(C#N)cnc3cc(-c4ccc(CN5CCC(O)CC5)nc4)ccc23)cc1Cl [Example 223, 4-({3-Chloro-4-[(1-methyl-1H-imidazol-2-yl)sulfanyl]phenyl}amino)-7-{6-[(4-hydroxy-1-piperidinyl)methyl]-3-pyridinyl}-3-quinolinecarbonitrile] yielded a melting point of 242 to 244 °C.
Compound COc1cc(Nc2c(C#N)cnc3cc(-c4cnc(CN5CCOCC5)n4C)ccc23)c(Cl)cc1Cl [Example 226, 4-(2,4-Dichloro-5-methoxyanilino)-7-[1-methyl-2-(4-morpholinylmethyl)-1H-imidazol-5-yl]-3-quinolinecarbonitrile] has a melting point of 140 to 143 °C.
Compound COc1cc(Nc2c(C#N)cnc3cc(-c4cnc(CN5CCN(C)CC5)n4C)ccc23)c(Cl)cc1Cl [Example 227, 4-(2,4-Dichloro-5-methoxyanilino)-7-{1-methyl-2-[(4-methyl-1-piperazinyl)methyl]-1H-imidazol-5-yl}-3-quinolinecarbonitrile] has a melting point of 156 to 159 °C.
Work on COc1cc(Nc2c(C#N)cnc3cc(-c4cnc(CN5CCN(C)CC5)n4C)c(OC)cc23)c(Cl)cc1Cl [Example 233, 4-(2,4-Dichloro-5-methoxyanilino)-6-methoxy-7-{1-methyl-2-[(4-methyl-1-piperazinyl)methyl]-1H-imidazol-5-yl}-3-quinolinecarbonitrile] yielded a melting point of 234 to 236 °C.
